# Results reported in US20240131032A1, “AN ACTIVITY-GUIDED MAP OF ELECTROPHILE-CYSTEINE INTERACTIONS IN PRIMARY HUMAN IMMUNE CELLS” (The Scripps Research Institute, priority 2019, published 2024).
# Experiments:
# NFATc2 = test: NFAT pathway activation in stimulated T cells (western blot of NFATc2); format: cell-based, human; conditions: 4 h
# Experimental: FIG. 22A and FIG. 22B show the effects of active compounds on NFAT pathway activation. […] FIG. 22C and FIG. 22D show the effects of active compounds on MAPK pathway. […] All treatments were done for 24 h.
# BIRC2 = BIRC2 (Homo sapiens, UniProt Q13490); test: isoTOP-ABPP and TMT-ABPP cysteine engagement, BIRC2; format: binding; set-up: endogenous in cells; host or cells: primary human T cells
# BIRC2, sequence (Q13490 whole entry): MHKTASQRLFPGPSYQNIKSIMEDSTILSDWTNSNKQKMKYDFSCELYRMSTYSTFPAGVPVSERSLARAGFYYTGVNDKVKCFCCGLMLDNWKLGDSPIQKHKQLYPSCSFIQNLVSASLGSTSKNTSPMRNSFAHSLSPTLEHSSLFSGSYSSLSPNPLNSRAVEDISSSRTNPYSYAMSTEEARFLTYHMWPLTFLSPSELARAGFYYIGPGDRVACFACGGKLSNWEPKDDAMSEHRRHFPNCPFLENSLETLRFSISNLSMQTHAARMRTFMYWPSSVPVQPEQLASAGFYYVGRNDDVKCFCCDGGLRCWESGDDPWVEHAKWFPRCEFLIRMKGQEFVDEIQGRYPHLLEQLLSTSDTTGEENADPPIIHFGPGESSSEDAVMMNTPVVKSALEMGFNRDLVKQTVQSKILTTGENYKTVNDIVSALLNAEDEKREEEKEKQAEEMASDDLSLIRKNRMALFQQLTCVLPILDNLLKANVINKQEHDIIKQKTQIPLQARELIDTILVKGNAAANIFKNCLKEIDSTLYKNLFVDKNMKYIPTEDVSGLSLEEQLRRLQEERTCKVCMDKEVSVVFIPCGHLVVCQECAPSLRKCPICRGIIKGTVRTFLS
# Experimental: Activated or expanded T cells were re-suspended in RPMI media supplemented with 10% FBS, L-glutamine (2 mM), penicillin (100 U/mL), and streptomycin (100 μg/mL) at 2×10^6 cells/mL. The compounds were added to cells as 1000×DMSO stocks and mixed well with the media by pipetting up and down after addition. The cells were kept at 37° C. in 5% CO2 containing incubators for 3 h (or otherwise specified times), then pelleted by centrifugation (524 g, 5 min, 4° C.), washed with cold PBS (10 mL) and transferred to Eppendorf tubes (1 mL PBS). The cells were pelleted again (524 g, 5 min, 4° C.), flash-frozen, and kept at −80° C. until further analysis.
# Activated or expanded primary human T cells were re-suspended in RPMI (1×10^6 cells/mL) containing 10% fetal bovine serum (FBS), penicillin (100 U/mL), streptomycin ([…]), and L-glutamine (2 mM). […] The resulting proteomes were analyzed by competitive isotopic Tandem Orthogonal Proteolysis Activity-Based Protein Profiling (isoTOP-ABPP). […]
# The heavy/light isoTOP-ABPP ratios (R values) for each unique peptide (DMSO/compound treated) were quantified with in-house CIMAGE software (Weerapana et al., 2010) using default parameters (3 MS1 acquisitions per peak and signal to noise threshold set to 2.5). Site-specific engagement of cysteine residues was assessed by blockade of IA-alkyne probe labeling. […]
# [1] = tested on: CRISPR/Cas9-edited primary human T cells; test: T cell activation after CRISPR/Cas9 target disruption plus compound (FACS CD25/CD69); format: cell-based
# Experimental: DNA templates consisting of a T7 RNA Polymerase promoter, the ˜20 nt target-specific sequence, and the chimeric sgRNA scaffold were generated for each desired target by overlapping PCR using Q5 High Fidelity Master Mix (New England Biolabs) under the following conditions: 98° C. for 2 min; 50° C. for 10 min; 72° C. for 10 min. Guide RNA templates were used to transcribe guide RNAs using the HiScribe T7 High Yield RNA Synthesis kit (New England Biolabs) according to the manufacturer's instructions. Following in vitro transcription, guides were purified using Monarch RNA Cleanup Kit (New England Biolabs) following manufacturer's instructions.
# The Cas9 RNPs were assembled before transfection using the ArciTect™ Cas9-eGFP Nuclease (StemCell) with the T7 transcribed RNAs at a molar ratio of 1:3 in Buffer T. For each target of interest, the genome was tiled with 3 unique guide RNAs. Before the transfection, primary T cells were preactivated on αCD3/αCD28-precoated plates in complete RPMI medium supplemented with 100 U/mL IL2 for 48 h. The T cells were then washed with PBS and resuspended in Buffer T (10×10^6 cells/mL) and the Cas9 RNP transfections were performed using the Neon Transfection system (ThermoFisher). Following the Cas9 RNP transfection, T cells were cultured in RPMI supplemented with 50 U/mL IL2 for 7 days. […]
structure (smiles),measurement,setting,value
C=CC(=O)N(Cc1cccc(Cl)n1)c1ccc(C(=O)Nc2ccccc2)nc1 [BPK-25],NFATc2 expression,NFATc2,reduced NFATc2 expression
O=C(CCl)N1CCN(S(=O)(=O)c2ccc(-c3ccncc3)cc2)CC1 [EV-3],engagement of C45 of BIRC2,BIRC2,engaged
same,T cell activation in BIRC2/BIRC3-null cells,[1]; CRISPR/Cas-9 disruption of BIRC2 and BIRC3,further decreased T cell activation
"COC(=O)/C=C/C(=O)OC [DMF, reference compound]",engagement of C45 of BIRC2,BIRC2,engaged
C=CC(=O)N(Cc1cccc(Cl)c1Cl)c1ccc(Oc2ccccc2)c(C(F)(F)F)c1 [BPK-21],reductions in NFATc2 dephosphorylation (NFAT activation),NFATc2,did not appear to impact
same,T cell activation in sgERCC3 cells,[1]; CRISPR/Cas9 disruption of ERCC3,only a modest further reduction in activation
